Results on six compounds are retold here after ChEMBL document CHEMBL1140201, “Insights into ligand-elicited activation of human constitutive androstane receptor based on novel agonists and three-dimensional quantitative structure-activity relationship” (J Med Chem, 2008).

Common to all, as to type: cell-based
For series [1], the target named is T1, CAR (NR1I3) Phe161Ala mutant (Homo sapiens, UniProt Q14994, F161A). Put plainly: Activation of human CAR Phe161Ala mutant expressed in human C3A cells at 10 uM after 24 hrs by GAL4-dependent luciferase reporter gene assay relative to control. The settings on record: C3A cells expressing human CAR Phe161Ala mutant, read-out: FC. (Reporter assays use an easily measured gene product as a stand-in for the process of interest.)

Series [2] deals with T2, CAR (NR1I3) Asn165Ala mutant (Homo sapiens, UniProt Q14994, N165A). Briefly: Activation of human CAR Asn165Ala mutant expressed in human C3A cells at 10 uM after 24 hrs by GAL4-dependent luciferase reporter gene assay relative to control. The conditions noted are these: C3A cells expressing human CAR Asn165Ala mutant, read-out: FC.
Series [3] has as its target T3, CAR (NR1I3) His203Ala mutant (Homo sapiens, UniProt Q14994, H203A). Briefly: Activation of human CAR His203Ala mutant expressed in human C3A cells at 10 uM after 24 hrs by GAL4-dependent luciferase reporter gene assay relative to control. The settings on record: C3A cells expressing human CAR His203Ala mutant, read-out: FC.
Series [4] addresses T4, CAR (NR1I3) Ile164Ala mutant (Homo sapiens, UniProt Q14994, I164A). Put plainly: Activation of human CAR Ile164Ala mutant expressed in human C3A cells at 10 uM after 24 hrs by GAL4-dependent luciferase reporter gene assay relative to control. The conditions noted are these: C3A cells expressing human CAR Ile164Ala mutant, read-out: FC.
Series [5] has as its target T5, CAR (NR1I3) ligand-binding domain, wild type (Homo sapiens, UniProt Q14994).
T5 sequence (Q14994 whole entry): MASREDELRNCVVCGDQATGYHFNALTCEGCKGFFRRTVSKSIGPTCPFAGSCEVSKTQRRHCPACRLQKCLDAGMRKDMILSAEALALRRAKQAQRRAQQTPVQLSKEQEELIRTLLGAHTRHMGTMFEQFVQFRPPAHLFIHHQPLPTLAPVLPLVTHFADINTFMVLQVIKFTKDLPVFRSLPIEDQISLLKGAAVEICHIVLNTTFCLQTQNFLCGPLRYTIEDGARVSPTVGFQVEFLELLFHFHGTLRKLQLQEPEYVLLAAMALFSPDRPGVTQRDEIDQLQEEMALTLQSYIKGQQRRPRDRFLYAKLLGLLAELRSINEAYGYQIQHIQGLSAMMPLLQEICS
Put plainly: Activation of human CAR-LBD expressed in human C3A cells at 10 uM after 24 hrs by GAL4-dependent luciferase reporter gene assay relative to control. The settings on record: C3A cells expressing human CAR-LBD, read-out: FC.

Series [6] addresses T3, CAR (NR1I3) His203Ala mutant. Put plainly: Activation of human CAR His203Ala mutant expressed in human C3A cells at 4 uM after 24 hrs by GAL4-dependent luciferase reporter gene assay relative to control. The conditions noted are these: C3A cells expressing human CAR His203Ala mutant, read-out: FC.
The target in series [7] is T1, CAR (NR1I3) Phe161Ala mutant. Put plainly: Activation of human CAR Phe161Ala mutant expressed in human C3A cells at 4 uM after 24 hrs by GAL4-dependent luciferase reporter gene assay relative to control. The conditions noted are these: C3A cells expressing human CAR Phe161Ala mutant, read-out: FC.
For series [8], the target named is T2, CAR (NR1I3) Asn165Ala mutant. Briefly: Activation of human CAR Asn165Ala mutant expressed in human C3A cells at 4 uM after 24 hrs by GAL4-dependent luciferase reporter gene assay relative to control. The conditions noted are these: C3A cells expressing human CAR Asn165Ala mutant, read-out: FC.
In series [9] the target is T4, CAR (NR1I3) Ile164Ala mutant. Briefly: Activation of human CAR Ile164Ala mutant expressed in human C3A cells at 4 uM after 24 hrs by GAL4-dependent luciferase reporter gene assay relative to control. The settings on record: C3A cells expressing human CAR Ile164Ala mutant, read-out: FC.
In series [10] the target is T5, CAR (NR1I3) ligand-binding domain, wild type. Put plainly: Activation of human CAR-LBD expressed in human C3A cells at 4 uM after 24 hrs by GAL4-dependent luciferase reporter gene assay relative to control. The settings on record: C3A cells expressing human CAR-LBD, read-out: FC.

T4 sequence (Q14994 whole entry I164A, the tested form may be a part): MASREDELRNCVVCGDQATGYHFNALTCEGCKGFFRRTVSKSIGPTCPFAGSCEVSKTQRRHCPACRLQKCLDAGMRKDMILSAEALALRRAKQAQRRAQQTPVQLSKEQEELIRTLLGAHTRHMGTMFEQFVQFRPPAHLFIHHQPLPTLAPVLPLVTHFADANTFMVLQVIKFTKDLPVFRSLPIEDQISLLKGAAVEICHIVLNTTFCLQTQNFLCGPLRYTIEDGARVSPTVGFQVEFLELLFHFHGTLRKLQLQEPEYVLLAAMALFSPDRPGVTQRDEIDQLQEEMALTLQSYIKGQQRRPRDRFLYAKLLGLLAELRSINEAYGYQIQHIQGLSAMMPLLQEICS
T1 sequence (Q14994 whole entry F161A, the tested form may be a part): as the sequence (Q14994 whole entry I164A, the tested form may be a part) above, with F161A, A164I counted along it
T3 sequence (Q14994 whole entry H203A, the tested form may be a part): as the sequence (Q14994 whole entry I164A, the tested form may be a part) above, with A164I, H203A counted along it
T2 sequence (Q14994 whole entry N165A, the tested form may be a part): as the sequence (Q14994 whole entry I164A, the tested form may be a part) above, with A164I, N165A counted along it

For `O=C1CS[C@H](c2ccncc2)N1Cc1nc2ccccc2[nH]1`, the fold induction at 24 h, 10 µM in series [1] came to 1.3; in series [2] it was 1.19; in series [3], 1.24; in series [4] it was 1.13; in [5], 1.4.

Take `Cc1ccc(NC(=O)NC2CCC2)cc1C`: the fold induction at 24 h, 10 µM stood at 1.15 in series [1]; 1.33 in series [2]; 1.53 in series [3]; 1.37 in [4]; 1.37 in series [5].

Consider `O=S(=O)(Nc1nc2c(s1)CCCC2)c1ccc(Br)s1`, for which the fold induction at 24 h, 10 µM in [1] is 1; in series [2], 1.01; in [3], 1.18; in [4], 1.06; in series [5] it was 1.32.

With `CC(C)c1ccc(OP(=O)(Oc2ccc(C(C)C)cc2)Oc2ccc(C(C)C)cc2)cc1`, the fold induction at 24 h, 10 µM in series [1] was 1.06; in [2] it was 2.66; in series [3], 6.76; in series [4], 1.67; in [5] it was 2.45.

As to `Clc1ccccc1C(c1ccccc1)(c1ccccc1)n1ccnc1` [CLOTRIMAZOLE], the fold induction at 24 h, 4 µM in [6] came to 0.21; in [7], 13.1; in series [8], 4.47; in [9], 21.3; in series [10] it was 4.34.

For the compound `O=P(Oc1ccccc1)(Oc1ccccc1)Oc1ccccc1` [TRIPHENYL PHOSPHATE], the fold induction at 24 h, 10 µM in series [1] amounted to 0.82; in [2], 3.01; in series [3], 2.79; in [4] it was 6.42; in series [5], 3.96.
